Results on 1 molecule are retold here after article PMC11984392, “EphA2-targeted alpha-particle theranostics for enhancing PDAC treatment” (Theranostics, 2025).

One series relates to Panc1 cells. The series is described as follows: In vitro binding assay with Ga-68 radiotracer. The class given is cell-based, human. As for the experimental part: (§1) In vitro binding assays were performed to determine the binding of [^68Ga]AJ201 and [^68Ga]AJ210 to Jurkat and PDAC cell lines. Approximately 1 μCi of radiotracer was incubated with cells in 100 μL culture media for 60 min at 4 °C. After incubation, cells were washed three times with ice cold PBS and counted on an automated gamma counter (1282 Compugamma CS, Pharmacia/LKBNuclear, Inc., Gaithersburg, MD). […] For kinetic study, 8×10^6 Panc1 cells/vial were incubated with approximately 8 μCi/vial of [^68Ga]AJ201 in culture media in triplicates at 37 °C and 4 °C in separate tubes. 1×10^6 cells were aliquoted at predetermined timepoints (5, 15, 30, 60 min). Excess radioactivity was removed by washing three times with PBS. Activity in cell pellets were measured on an automated gamma counter.

The test system of another series is Hs766T cells. Description: In vitro binding assay with Ga-68 radiotracer. The class given is cell-based, human. Conditions: 1 µCi, 60 min, 4 °C, mean ± SD (n = 3-4). As for the experimental part:
as §1

The subject of another series is AsPC1 cells. The series is described as follows: In vitro binding assay with Ga-68 radiotracer. Conditions: 1 µCi, 60 min, 4 °C, mean ± SD (n = 3-4). The class given is cell-based, human. As for the experimental part:
as §1

Another series relates to Jurkat cells. The series is described as follows: In vitro binding assay with Ga-68 radiotracer. Conditions: Jurkat (negative control cells); 1 µCi, 60 min, 4 °C; mean ± SD (n = 3-4). The class given is cell-based, human. How it is done: as §1
Another series has as its system Panc1005 cells. The series is described as follows: In vitro binding assay with Ga-68 radiotracer. The class given is cell-based, human. The note with it: 1 µCi, 60 min, 4 °C, mean ± SD (n = 3-4). As for the experimental part:
as §1

The next series relates to CFPAC cells. Description: In vitro binding assay with Ga-68 radiotracer. Conditions: 1 µCi, 60 min, 4 °C, mean ± SD (n = 3-4). The class given is cell-based, human. As for the experimental part: as §1
The test system of the next series is BxPC3 cells. Description: In vitro binding assay with Ga-68 radiotracer. The class given is cell-based, human. Conditions: 1 µCi, 60 min, 4 °C, mean ± SD (n = 3-4). As for the experimental part: as §1
The next series concerns Su8686 cells. The series is described as follows: In vitro binding assay with Ga-68 radiotracer. The class given is cell-based, human. The note with it: 1 µCi, 60 min, 4 °C, mean ± SD (n = 3-4). How it is done: as §1
The next series has as its system BxPC3 tumor xenografts. Description: Ex vivo biodistribution. The class given is in vivo, NSG mice. The note with it: BxPC3 xenograft; 60 min p.i.; mean ± SEM (n = 4 or 5). As for the experimental part: (§2) Animal studies were performed under Johns Hopkins University Animal Care and Use Committee (ACUC)-approved protocol (Principal investigator: Sridhar Nimmagadda, Ph.D. and Protocol number M021M175). Male and Female NSG mice (5-6 weeks old) were purchased from JHU immunocompromised core and used to establish xenografts by administering cells subcutaneously (top right flank, unless otherwise noted) to form various tumor models within 3-4 weeks. Following cell numbers were used: Panc1, AsPC1, BxPC3 (1 M), Hs766T and SU8686 (2 M), CFPAC and Panc1005 (5 M). Imaging or biodistribution studies (n = 3-5) were conducted on mice with tumor volumes of 100-200 mm^3. The Panc1 orthotopic tumor model was established by surgically implanting a 3-5 mm^3 section of Panc1 tumor xenograft directly onto the pancreas. The implanted tumors were allowed to grow and were ready for imaging after 10 days of implantation.
(§3) Mice with 100-200 mm^3 tumor volume were used for ex vivo biodistribution studies. For radiotracer pharmacokinetics and dosimetry studies, mice with Panc1 tumor xenograft received ~80 µCi (2.96 MBq) [^68Ga]AJ201 and were sacrificed at pre-determined time points (5, 30, 60, 90 and 120 min). All other mice were injected with ~50 µCi (1.85 MBq; 0.2 to 0.5 nmol) Ga-68 labeled radiotracer and were sacrificed at 60 min. The selected tissues were collected, weighed, counted, and their %ID/g values calculated for biodistribution analysis. For pharmacokinetics and dosimetry studies, selected tissues included blood, muscle, tumor, thymus, heart, lung, liver, pancreas, stomach, small intestine, large intestine, spleen, adrenals, kidney, bladder, femur, brain and tumor xenografts. For other studies, selected tissues were blood, muscle, tumor, heart, lung, liver, pancreas, small intestine, spleen, kidney.

The subject of the next series is CFPAC tumor xenografts. The series is described as follows: Ex vivo biodistribution. The class given is in vivo, NSG mice. Conditions: CFPAC xenograft; 60 min p.i.; mean ± SEM (n = 4 or 5). As for the experimental part: as §2, §3

The structures appear in SMILES notation. *1 amine or outer side, *2 acyl side, *3 side chain or, on linkers, in order; H or OH if unused. Where a SMILES comes first, the peptide text is derived from it. Bridges are numbered along the chain shown (N, C = ends). [ ]: non-standard residue; d: D form. The star is where a group is joined. TATA = O=C(CC[*:1])N1CN(C(=O)CC[*:2])CN(C(=O)CC[*:3])C1; NOTA = O=C(O)CN1CCN(CC(=O)O)CCN(CC(=O)*)CC1; Hyp = O=C(O)[C@@H]1C[C@@H](O)CN1; hArg = N=C(N)NCCCC[C@H](N)C(=O)O; PEG2 = NCCOCCOCCC(=O)O; Sar = CNCC(=O)O

In the case of `CC(C)C[C@@H]1NC(=O)[C@@H]2CSCCC(=O)N3CN(CN(C3)C(=O)CCSC[C@H](NC(=O)[C@H](CC(=O)O)NC(=O)[C@H](CCCCNC(=N)N)NC(=O)[C@H](C)NC(=O)CNC(=O)CN(C)C(=O)CN(C)C(=O)CN(C)C(=O)[C@H](CCCNC(=N)N)NC(=O)CNC(=O)CCOCCOCCNC(=O)CN3CCN(CC(=O)O)CCN(CC(=O)O)CC3)C(=O)N3C[C@H](O)C[C@H]3C(=O)N[C@@H](CC(C)C)C(=O)N[C@@H](C(C)C)C(=O)N[C@@H](CC(N)=O)C(=O)N3CCC[C@H]3C(=O)N[C@@H](CC(C)C)C(=O)N2)C(=O)CCSC[C@@H](C(N)=O)NC(=O)[C@H](CCCCNC(=N)N)NC(=O)[C@H](Cc2c[nH]c3ccccc23)NC(=O)[C@@H](CC(=O)O)NC(=O)[C@@H]2CCCN2C(=O)[C@H](Cc2c[nH]cn2)NC1=O` [[^68Ga]AJ201, metal not drawn] ({NOTA-PEG2}-GR[Sar][Sar][Sar]GA[hArg]DC[Hyp]LVNPLCLHP[dD]W[hArg]C-NH2; linker 10-17-24 via TATA), in the series with Panc1 cells (4 °C, time points 5, 15, 30, 60 min), the “Time to uptake stabilization in Panc1 cells” value is listed as “around 30 min”. Moreover, the “Time to uptake equilibrium in Panc1 cells” value in the series with Panc1 cells (37 °C, time points 5, 15, 30, 60 min) is not above 15 min. In the series on Panc1 cells (in the presence of non-radioactive AJ201 (2 µM), P<0.0001), the “Reduction of binding to Panc1 cells by blocking” value was “more than 95%”. The “Cell binding (percent incubated activity)” value in the series with Hs766T cells is recorded as 7.2 ± 0.6 %IA; with AsPC1 cells, 9.9 ± 1.2 %IA; with Jurkat cells, 0.8 ± 0.1 %IA; in the series on Panc1005 cells, 4.7 ± 0.1 %IA; in the series on CFPAC cells it was 1.7 ± 0.3 %IA; with BxPC3 cells it was 5.9 ± 0.2 %IA. Also, the “Cell binding (percent incubated activity)” value in the series with Su8686 cells came to 22.0 ± 1.1 %IA. Moreover, the Heart uptake in the series on BxPC3 tumor xenografts is on record as 0.29 ± 0.01 %ID/g. Besides, the Muscle uptake in the series with CFPAC tumor xenografts is given as 0.21 ± 0.04 %ID/g. In the series with CFPAC tumor xenografts, this molecule came in with a Small intestine uptake of 0.51 ± 0.10 %ID/g.
